The source of these data is publication PMC6032384 (International Journal of Molecular Sciences, 2018).

Where two headings read alike, the source gives them in different places.

The subject of assay [1] is wild-type immortalized mouse embryonic fibroblasts (WT SV40 MEF). The experiment in a line: Alamar blue (AB) cytotoxicity assay, WT SV40 MEF. In kind it is cell-based. The following applies: Mus musculus, Fibroblast, 72 h. (In general: The colour change of resazurin is a common sign of viable cells or microbes.)
The subject of assay [2] is BAD gene knockout immortalized mouse embryonic fibroblasts (BAD KO SV40 MEF). Nature of the assay: Alamar blue (AB) cytotoxicity assay, BAD KO SV40 MEF. Conditions: Mus musculus, Fibroblast, 72 h. The format is cell-based.
Assay [3] concerns HL-60 cells. Nature of the assay: Annexin V-FITC/PI apoptosis assay by flow cytometry. The following applies: annexin V-FITC/PI, 24 and 48 h. In kind it is cell-based, human. The procedure:
Additionally, annexin V, which is a Ca^2+-dependent protein with high affinity for phosphatidylserine, was conjugated to a fluorochrome to detect phosphatidylserine exposure using flow cytometry. Since phosphatidylserine exposure precedes the loss of membrane integrity, annexin V staining was used along with the dye PI to identify early and late apoptotic cells, as well as necrotic cells. Therefore, annexin V-FITC/PI double staining was applied to HL-60 cells that were treated with the [Ru(PPh3)2(Thy)(bipy)]PF6 complex after 24 and 48 h of incubation, and the numbers of viable, early apoptotic, late apoptotic, and necrotic cells were quantified by flow cytometry (Figure 5).
Figure 5 Evaluation of the apoptosis induced by the [Ru(PPh3)2(Thy)(bipy)]PF6 complex (CRT) in HL-60 cells determined by flow cytometry using annexin V-FITC/PI staining after 24 and 48 h of incubation. (A) Representative flow cytometry dot plots. (B) Apoptotic cell quantification (annexin V-FITC positive cells). […] Data are presented as the mean ± S.E.M. of at the least three independent experiments. * p < 0.05 as compared with the negative control by ANOVA, followed by the Student Newman-Keuls test. […] Its quadrant percentages are just as hard to read: 24 h about Q1 0.640%, Q2 5.23%, Q4 85.6%, Q3 8.47%; 48 h about Q1 0.430%, Q2 3.07%, Q4 91.0%, Q3 5.52%.
(§1) Light scattering features were determined by flow cytometry. The internucleosomal DNA fragmentation and cell cycle distribution were determined according to Nicoletti et al.. For apoptosis measurements, a FITC Annexin V Apoptosis Detection Kit I (BD Biosciences, San Jose, CA, USA) was used, and the analysis was performed, according to the manufacturer’s instructions. A protection assay using the pan-caspase inhibitor Z-VAD(OMe)-FMK (Cayman Chemical, Ann Arbor, MI, USA) was also evaluated. The mitochondrial transmembrane potential was determined by the retention of the dye rhodamine 123 [28]. The levels of ROS were measured, as previously described, using 2′,7′-dichlorofluorescin diacetate (DCF-DA, Sigma-Aldrich Co.). At least 1 × 10^4 events were recorded per sample using a BD LSRFortessa cytometer along with BD FACSDiva Software (BD Biosciences) and Flowjo Software 10 (Flowjo LCC, Ashland, OR, USA). The cellular debris was omitted from the analysis.
On the technique in general: In flow cytometry, cells or beads pass a laser one at a time.

In assay [4] the test system is MRC-5 (human lung fibroblast). The experiment in a line: Alamar blue (AB) cytotoxicity assay, MRC-5 noncancerous cells. The format is cell-based. The following applies: MRC5 non-cancer cells, 72 h.
Assay [5] has as its system HL-60 cells. Nature of the assay: Cell morphology (May-Grunwald-Giemsa staining) and light scattering by flow cytometry. The following applies: positive controls, DOX 2 µM, OXA 2.5 µM. The format is cell-based, human.
Assay [6] relates to PBMC (human peripheral blood mononuclear cell). Nature of the assay: Alamar blue (AB) cytotoxicity assay, PBMC noncancerous cells. The format is cell-based. The following applies: PBMC non-cancer cells, 72 h.
Assay [7] concerns HL-60 cells. The following applies: 2 μM, TBE.
Assay [8] relates to HL-60 cells. The format is cell-based, human. The following applies: for DNA fragmentation (in words): positive controls, DOX 2 µM, 24 and 48 h. The procedure: The internucleosomal DNA fragmentation and cell cycle distribution were assessed in HL-60 cells after 24 and 48 h of incubation with the [Ru(PPh3)2(Thy)(bipy)]PF6 complex in a DNA content-based assay using the dye propidium iodide (PI) and flow cytometry (Table 3). All DNA with a subdiploid size (sub-G0/G1) were considered to be fragmented. At concentrations of 1, 2, and 4 μM, the complex led to, respectively, 19.4%, 30.1%, and 36.2% DNA fragmentation after 24 h of incubation and to 12.5%, 26.7%, and 58.2% DNA fragmentation after 48 h of incubation.
as §1

For `O=c1[nH]cc(F)c(=O)[nH]1` [5-fluorouracil], the half-inhibitory concentration (IC50) (commonly the concentration needed to halve the response being measured) is 5.7 µM in assay [1] and 11.2 µM in assay [2].
For `COc1cccc2c1C(=O)c1c(O)c3c(c(O)c1C2=O)C[C@@](O)(C(=O)CO)C[C@@H]3O[C@H]1C[C@H](N)[C@H](O)[C@H](C)O1` [DOX, Doxorubicin, reference compound], in assay [3], the “Percentage of apoptotic cells (early apoptotic cells + late apoptotic cells)” value is given as “caused an increase”. Also, the concentration for half-maximal inhibition (IC50) worked out at 0.8 µM in assay [1], 1.5 µM in assay [4] (Homo sapiens), 1.3 µM in assay [2] and 5.1 µM in assay [6] (Homo sapiens). Besides, in assay [5], the “Type of cell death” value is reported as “caused cell death by apoptosis”. In addition, the “Reduction of the number of viable cells” value is recorded as 58.0% in assay [7] (24 h) and 88.1% in assay [7] (48 h). For the same molecule, the “DNA content G0/G1” value in assay [8] (2 µM, 24 h) worked out at 19.9 ± 2.5 %; in assay [8] (2 µM, 48 h), 21.9 ± 3.0 %. Besides, the “DNA content G2/M” value in assay [8] (2 µM, 24 h) is on record as 8.9 ± 1.5 %; in assay [8] (2 µM, 48 h), 3.8 ± 0.9 %. The “DNA content S” value in assay [8] (2 µM, 24 h) was 6.6 ± 1.6 %; in assay [8] (2 µM, 48 h), 6.5 ± 0.6 %. The “DNA content Sub-G0/G1 (DNA fragmentation)” value (“DNA content Sub-G0/G1” below) in assay [8] (2 µM, 24 h) was 58.6 ± 2.5 %; in assay [8] (2 µM, 48 h) it was 65.4 ± 2.8 %. In assay [8] (OXA 2.5 µM), the “DNA fragmentation (in words)” value is given as “induced DNA fragmentation”.
As to `O=C1[O][Pt]2([NH][C@@H]3CCCC[C@H]3[NH]2)[O]C1=O` [OXA, Oxaliplatin, reference compound], the “Percentage of apoptotic cells (early apoptotic cells + late apoptotic cells)” value in assay [3] was “caused an increase”. The molecule further gave a 50% inhibitory concentration (IC50) in assay [4] of 1.3 µM. The “Type of cell death” value in assay [5] was “caused cell death by apoptosis”. For the same molecule, the half-maximal inhibitory concentration (IC50) in assay [6] was determined as 9.4 µM. Besides, in assay [8] (2.5 µM, 24 h), the “DNA content G0/G1” value is listed as 31.4 ± 3.0 %, the “DNA content G2/M” value was determined as 26.0 ± 3.6 %, the “DNA content S” value was determined as 11.6 ± 2.3% and the “DNA content Sub-G0/G1” value worked out at 21.9 ± 3.3 %. Further, in assay [8] (2.5 µM, 48 h), the “DNA content G0/G1” value is reported as 42.9 ± 2.8 %, the “DNA content G2/M” value was 19.1 ± 3.3%, the “DNA content S” value turned out to be 14.2 ± 1.2% and the “DNA content Sub-G0/G1” value was determined as 18.4 ± 4.4 %. In addition, in assay [8] (OXA 2.5 µM), the Cell cycle arrest entry is reported as “cell cycle arrest at the G2/M phase” and the “DNA fragmentation (in words)” value is given as “induced DNA fragmentation”.
